{"source": "ChEMBL document CHEMBL4308826", "about": "“Small Molecule Allosteric Modulators of G-Protein-Coupled Receptors: Drug-Target Interactions” (J Med Chem, 2018)", "key": {"[1]": {"biological_target": "T1, Proteinase-activated receptor 2 (Homo sapiens, UniProt P55085)", "T1 sequence (P55085 whole entry)": "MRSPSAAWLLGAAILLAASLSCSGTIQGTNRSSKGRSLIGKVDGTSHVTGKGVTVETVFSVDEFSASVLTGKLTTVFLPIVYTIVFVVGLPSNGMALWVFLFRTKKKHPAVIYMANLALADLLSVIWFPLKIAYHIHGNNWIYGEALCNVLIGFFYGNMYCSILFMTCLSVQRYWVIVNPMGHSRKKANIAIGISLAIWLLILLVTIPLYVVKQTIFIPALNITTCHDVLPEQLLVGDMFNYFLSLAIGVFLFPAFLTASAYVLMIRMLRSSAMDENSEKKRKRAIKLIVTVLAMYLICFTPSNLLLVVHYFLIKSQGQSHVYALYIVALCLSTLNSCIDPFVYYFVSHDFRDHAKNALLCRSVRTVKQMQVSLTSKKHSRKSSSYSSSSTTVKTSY", "experiment": "Antagonist activity at human PAR2"}, "[2]": {"biological_target": "T2, Proteinase-activated receptor 4 (Homo sapiens, UniProt Q96RI0)", "T2 sequence (Q96RI0 whole entry)": "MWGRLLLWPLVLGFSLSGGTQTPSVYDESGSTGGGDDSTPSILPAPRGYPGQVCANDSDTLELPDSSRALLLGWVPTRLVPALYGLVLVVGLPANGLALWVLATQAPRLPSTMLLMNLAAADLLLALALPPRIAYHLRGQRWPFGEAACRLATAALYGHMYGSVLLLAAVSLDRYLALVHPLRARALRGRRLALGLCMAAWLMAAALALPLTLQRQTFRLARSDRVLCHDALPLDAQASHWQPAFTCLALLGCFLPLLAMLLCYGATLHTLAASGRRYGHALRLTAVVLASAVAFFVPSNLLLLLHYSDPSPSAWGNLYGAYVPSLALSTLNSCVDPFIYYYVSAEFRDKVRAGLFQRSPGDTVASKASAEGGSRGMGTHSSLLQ", "experiment": "Antagonist activity at human PAR4"}, "[3]": {"biological_target": "T3, Proteinase-activated receptor 1 (Homo sapiens, UniProt P25116)", "T3 sequence (P25116 whole entry)": "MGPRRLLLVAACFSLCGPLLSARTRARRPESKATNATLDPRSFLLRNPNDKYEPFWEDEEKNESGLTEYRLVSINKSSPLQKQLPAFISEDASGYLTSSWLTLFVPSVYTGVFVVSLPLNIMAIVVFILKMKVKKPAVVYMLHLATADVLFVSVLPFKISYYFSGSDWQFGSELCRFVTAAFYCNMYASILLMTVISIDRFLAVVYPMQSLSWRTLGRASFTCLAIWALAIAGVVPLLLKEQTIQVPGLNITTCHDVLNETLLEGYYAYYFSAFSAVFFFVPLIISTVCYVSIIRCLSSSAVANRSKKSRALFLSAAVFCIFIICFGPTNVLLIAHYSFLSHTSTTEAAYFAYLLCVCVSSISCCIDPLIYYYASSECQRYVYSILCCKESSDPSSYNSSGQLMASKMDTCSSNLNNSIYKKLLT", "experiment": "Antagonist activity at human PAR1"}}}
{"smiles": "C[C@@H](C1CCCCC1)n1c(-c2cc3c(cc2Br)OCO3)nc2cc(C(=O)Nc3ccc(C#N)cc3)ccc21", "values": [{"measurement": "IC50", "setting": "[1]", "value": "< 2.5", "unit": "nM"}, {"measurement": "IC50", "setting": "[2]", "value": 380, "unit": "nM"}, {"measurement": "IC50", "setting": "[3]", "value": "> 50000", "unit": "nM"}]}
